These results are taken from US9629822B2, “Flavonoid based antiviral targets” (UNIVERSITY OF CENTRAL FLORIDA RESEARCH FOUNDATION, INC., priority 2012, dated 2017).

The test system of data set [1] is CHO cells. Put plainly: CHO cell toxicity, MTS assay, 48 h. It is filed as cell-based, Chinese hamster. Particulars: Cricetulus griseus, CHO. Summed up:
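CHO cells plated at 10,000 cells/mL, incubated overnight, then exposed to drug (final DMSO <1%) for 48 h at 37 °C, 5% CO2, in triplicate. MTS added for a further 4 h; absorbance read at 490 nm. IC50 taken from relative A490 versus drug concentration.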

For data set [2], the system named is mock transfected 293T HEK cells. Put plainly: PathDetect Elk1 luminescence in mock transfected (empty pcDNA3 vector) 293T HEK cells, off-target effect. Format: cell-based, human. Particulars: for activation at 10 µM: Homo sapiens, read-out: Effect(%) on mock cells with each drug at 10 μM. The method, boiled down: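 HEK 293T cells were transiently transfected with PathDetect Elk1/luciferase and empty pcDNA3, then exposed to 10 μM compound in medium with 1% FBS and 1% DMSO for 20-24 h at 37 °C. BrightGlo luminescence was compared with the 1% DMSO control: % effect = 100%×(mock/DMSO) − 100%.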

A short description of data set [3]: TZMbI assay for cell safety (cell viability and growth, CytoTox Glo). Particulars: human, TZMbI cells, read-out: % decrease in viability compared to 0.1% DMSO vehicle based on viable cell luminescence. Here is the method:
Assays were performed below in accordance with the procedures set forth in The Journal of Immunology, 2006, 176, pp. 6900-905; AIDS Research and Human Retroviruses, 2004, 20:11, pp. 1157-1665.^32,33 TZMbI assays for cell safety were performed to identify potential anti-viral compounds. TZMbI assays for cell safety were performed to identify potential anti-viral compounds per the methods.

The mark [4] stands for this setting: 37° C., MTS reagent, read-out: CHO 48 h IC50 value.
The mark [5] stands for this setting: 10 μM vs 1% DMSO control, Equation 1.

Molecules are shown by their SMILES. Like-named read-outs stand apart in the source and are kept apart here.

As a reminder, the IC50 is the point on the concentration scale where inhibition reaches its midpoint.

As to `COc1ccc(Br)cc1/C=C/C(=O)c1c(O)cccc1OCc1ccccc1` [Compound 8l, (E)-1-(2-(Benzyloxy)-6-hydroxyphenyl)-3-(5-bromo-2-methoxyphenyl)prop-2-en-1-one], the IC50 in data set [1] (setting [4]) was found to be 8.1 ± 1 µM. The “toxicity at 10 μM in HEK cells, in words” value in data set [2] (10 μM) was “very toxic”. For the same molecule, in data set [2] (setting [5]), the “Effect(%) on mock cells with each drug at 10 μM” value (“Effect(%) on mock cells” below) was “Toxic”. Besides, in data set [3] (Experiment 2A), the cytotoxicity at 1.25 μM is -2.83%, the cytotoxicity at 2.5 μM was -0.43%, the cytotoxicity at 5 μM was determined as 2.2% and the cytotoxicity at 10 μM is 28.7%. The cytotoxicity at 20 μM in data set [3] (Experiment 2A) is 55.2%. Further, the cytotoxicity at 10 μM in data set [3] (Experiment 1A) was 29.8%.
On to `COc1ccc(Br)cc1/C=C/C(=O)c1ccc2ccccc2c1O` [Compound 8m, (E)-3-(5-bromo-2-methoxyphenyl)-1-(1-hydroxynaphthalen-2-yl)prop-2-en-1-one], for which the IC50 in data set [1] (setting [4]) came to 15.6 ± 1 µM. Also, in data set [2] (setting [5]), the “Effect(%) on mock cells” value turned out to be 35% and the activation at 10 µM stood at 35%. Moreover, in data set [3] (Experiment 2A), the cytotoxicity at 1.25 μM came out at 10.3%, the cytotoxicity at 2.5 μM was determined as 17.9%, the cytotoxicity at 5 μM amounted to 10.7% and the cytotoxicity at 10 μM was found to be 38.2%. Besides, the cytotoxicity at 20 μM in data set [3] (Experiment 2A) is 90%. Moreover, the cytotoxicity at 10 μM in data set [3] (Experiment 1A) stood at 20.3%.
Take `COc1ccccc1-c1oc2ccccc2c(=O)c1O` [Compound 9a, 3-Hydroxy-2-(2-methoxyphenyl)-4H-chromen-4-one]: in data set [1] (setting [4]), the IC50 was > 100 µM. In addition, in data set [2] (setting [5]), the activation at 10 µM was -1%. Besides, in data set [3] (Experiment 2A), the cytotoxicity at 5 μM is -3.31%, the cytotoxicity at 10 μM was -24.9%, the cytotoxicity at 20 μM is -21.6% and the cytotoxicity at 40 μM is -25.4%. Further, the cytotoxicity at 80 μM in data set [3] (Experiment 2A) is -7.86%.
As for `COc1ccc(Br)cc1-c1oc2ccccc2c(=O)c1O` [Compound 9b, 2-(5-Bromo-2-methoxyphenyl)-3-hydroxy-4H-chromen-4-one], in data set [1] (setting [4]), the IC50 is 88.5 ± 10.1 µM. Moreover, in data set [2] (setting [5]), the activation at 10 µM is -11%. Further, in data set [3] (Experiment 2A), the cytotoxicity at 5 μM was -7.08%, the cytotoxicity at 10 μM is -19%, the cytotoxicity at 20 μM was -25.9% and the cytotoxicity at 40 μM is -29.8%. In data set [3] (Experiment 2A), the cytotoxicity at 80 μM is 13.3%. Moreover, in data set [3] (Experiment 1A), the cytotoxicity at 10 μM is -2.1%.
As to `COc1ccc(Cl)cc1-c1oc2ccccc2c(=O)c1O` [Compound 9h, 2-(5-chloro-2-methoxyphenyl)-3-hydroxy-4H-chromen-4-one], the half-maximal inhibitory concentration (IC50) in data set [1] (setting [4]) stood at 25 ± 2.2 µM. Besides, in data set [2] (setting [5]), the “Effect(%) on mock cells” value was 2% and the activation at 10 µM is 2%. In addition, in data set [3] (Experiment 2A), the cytotoxicity at 1.25 μM is -8.02%, the cytotoxicity at 2.5 μM is -10.4%, the cytotoxicity at 5 μM is -13.9% and the cytotoxicity at 10 μM came to 1.57%. Further, in data set [3] (Experiment 2A), the cytotoxicity at 20 μM was 7.83%. Further, the cytotoxicity at 10 μM in data set [3] (Experiment 1A) worked out at 23.6%.
As for `COc1ccccc1-c1cc(=O)c2c(O)cccc2o1` [Compound 12a, 5-Hydroxy-2-(2-methoxyphenyl)-4H-chromen-4-one], in data set [1] (read-out: CHO 48 h IC50 value (μM)), the IC50 is > 100 µM. Also, the activation at 10 µM in data set [2] amounted to 2%. Moreover, in data set [3] (Experiment 2A), the cytotoxicity at 1.25 μM amounted to 6.38%, the cytotoxicity at 2.5 μM is 41.7%, the cytotoxicity at 5 μM amounted to 123% and the cytotoxicity at 10 μM turned out to be 43%. For the same molecule, the cytotoxicity at 20 μM in data set [3] (Experiment 2A) amounted to 131%. Also, the cytotoxicity at 10 μM in data set [3] (Experiment 1A) is 44.5%.
Consider `COc1ccc(Br)cc1-c1cc(=O)c2c(O)cccc2o1` [Compound 12b, 2-(5-Bromo-2-methoxyphenyl)-5-hydroxy-4H-chromen-4-one], for which the IC50 in data set [1] (setting [4]) was found to be 75.2 ± 8.7 µM. For the same molecule, the activation at 10 µM in data set [2] (setting [5]) was -16%. Besides, in data set [3] (Experiment 2A), the cytotoxicity at 1.25 μM was -8.84%, the cytotoxicity at 2.5 μM is -2.4%, the cytotoxicity at 5 μM is -3.2% and the cytotoxicity at 10 μM is 10.4%. For the same molecule, in data set [3] (Experiment 2A), the cytotoxicity at 20 μM stood at 49.1%. Also, in data set [3] (Experiment 1A), the cytotoxicity at 10 μM came out at 34.9%.
